pIC50: −log10 of the molar value.
Tests used:
Aromatase [1] = target: Aromatase (Homo sapiens, UniProt P11511); assay: In vitro inhibition to cytochrome P450 19A1 assayed using human placental microsomes; set-up: species or system Placenta
Aromatase [2] = target: T1, Aromatase (Rattus norvegicus, UniProt P22443); assay: In vivo reduction in serum estradiol in PMSG-primed rats after 2 hr at 5 mg/kg oral dose; assay type: functional, organism-based; set-up: dose 5 mg/kg, route oral; scale not given: the % may be the effect or the level left
T1 sequence (P22443 whole entry): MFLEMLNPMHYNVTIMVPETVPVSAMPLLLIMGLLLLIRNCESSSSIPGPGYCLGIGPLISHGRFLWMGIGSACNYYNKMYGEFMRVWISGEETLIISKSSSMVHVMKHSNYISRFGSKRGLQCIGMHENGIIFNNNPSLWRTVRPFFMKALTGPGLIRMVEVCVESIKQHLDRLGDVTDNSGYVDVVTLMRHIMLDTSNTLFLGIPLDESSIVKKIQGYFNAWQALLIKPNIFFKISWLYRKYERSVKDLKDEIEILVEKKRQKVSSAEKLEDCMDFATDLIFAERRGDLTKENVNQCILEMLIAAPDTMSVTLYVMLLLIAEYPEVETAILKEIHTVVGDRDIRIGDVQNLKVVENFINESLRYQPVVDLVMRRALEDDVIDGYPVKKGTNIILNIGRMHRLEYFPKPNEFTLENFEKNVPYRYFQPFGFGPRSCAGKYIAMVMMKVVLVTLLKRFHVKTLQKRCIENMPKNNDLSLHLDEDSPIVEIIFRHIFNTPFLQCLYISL

Aromatase [3] = target: T1, Aromatase; assay: In vivo reduction in serum estradiol in PMSG-primed rats after 6 hr at 5 mg/kg oral dose; assay type: functional, organism-based; set-up: dose 5 mg/kg, route oral; scale not given: the % may be the effect or the level left

| SMILES | pIC50 (Aromatase [1]) | Control (Aromatase [2]) [%] | Control (Aromatase [3]) [%] |
| --- | --- | --- | --- |
| C=CSCC[C@]12CCC(=O)C=C1CCC1C2=CC[C@]2(C)C(=O)CCC12 (stereo partly drawn) | 7.30 | 25 | 24 |
| C[C@]12CC=C3C(CCC4=CC(=O)CC[C@@]43CC[Se]c3ccccc3)C1CCC2=O (stereo partly drawn) | < 6.00 | – | – |
| CSC(=O)C[C@]12CCC(=O)C=C1CCC1C2CC[C@]2(C)C(=O)CCC12 (stereo partly drawn) | 7.38 | 37 | 49 |
| C[C@]12CC=C3C(CCC4=CC(=O)CC[C@@]43CCSCF)C1CCC2=O (stereo partly drawn) | 7.30 | 31 | 41 |
| CCSCC[C@]12CCC(=O)C=C1CCC1C2=CC[C@]2(C)C(=O)CCC12 (stereo partly drawn) | 6.06 | – | – |
| C[C@]12CC=C3C(CCC4=CC(=O)CC[C@@]43CCSCCS)C1CCC2=O (stereo partly drawn) | < 6.00 | – | – |
| CS[C@]12CCC(=O)C=C1CCC1C2=CC[C@]2(C)C(=O)CCC12 (stereo partly drawn) | 5.13 | – | – |
| C[C@]12CC=C3C(CCC4=CC(=O)CC[C@@]43CCSSc3ccc([N+](=O)[O-])cc3[N+](=O)[O-])C1CCC2=O (stereo partly drawn) | < 6.00 | 27 | 32 |
| COCC[C@]12CCC(=O)C=C1CCC1C2=CC[C@]2(C)C(=O)CCC12 (stereo partly drawn) | 5.00 | – | – |
| CN(C)CC[C@]12CCC(=O)C=C1CCC1C2=CC[C@]2(C)C(=O)CCC12 (stereo partly drawn) | < 5.00 | – | – |
| C[C@]12CC=C3C(CCC4=CC(=O)CC[C@@]43CCSC#N)C1CCC2=O (stereo partly drawn) | < 6.00 | 44 | 38 |
| C[C@]12CC=C3C(CCC4=CC(=O)CC[C@@]43CCI)C1CCC2=O (stereo partly drawn) | < 5.00 | – | – |
| C[C@]12CC=C3C(CCC4=CC(=O)CC[C@@]43CCSC3CC3)C1CCC2=O (stereo partly drawn) | < 6.00 | – | – |
| C[C@]12CC=C3C(CCC4=CC(=O)CC[C@@]43CCSC(F)F)C1CCC2=O (stereo partly drawn) | < 6.00 | – | – |
| CCSC(C[C@]12CCC(=O)C=C1CCC1C2=CC[C@]2(C)C(=O)CCC12)SCC (stereo partly drawn) | < 6.00 | – | – |
| CSCC[C@]12CCC(=O)C=C1CCC1C2=CC[C@]2(C)C(=O)CCC12 (stereo partly drawn) | 7.92 | 51 | 50 |
| C[C@]12CC=C3C(CCC4=CC(=O)CC[C@@]43CCSSc3ccccc3)C1CCC2=O (stereo partly drawn) | < 6.00 | 43 | 62 |
| CC(=O)SCC[C@]12CCC(=O)C=C1CCC1C2=CC[C@]2(C)C(=O)CCC12 (stereo partly drawn) | < 5.00 | 21 | 10 |
| C[C@]12CC=C3C(CCC4=CC(=O)CC[C@@]43CCSc3ccccc3)C1CCC2=O (stereo partly drawn) | 6.40 | – | – |
| CSCC[C@]12CCC(=O)C=C1CCC1C2CC[C@]2(C)C(=O)CCC12 (stereo partly drawn) | 7.66 | 11 | 16 |
| C#CSCC[C@]12CCC(=O)C=C1CCC1C2=CC[C@]2(C)C(=O)CCC12 (stereo partly drawn) | 6.48 | – | – |
| CSC(C[C@]12CCC(=O)C=C1CCC1C2=CC[C@]2(C)C(=O)CCC12)SC (stereo partly drawn) | < 6.00 | 18 | 13 |
| C=CCSCC[C@]12CCC(=O)C=C1CCC1C2=CC[C@]2(C)C(=O)CCC12 (stereo partly drawn) | 6.57 | – | – |
| CSSCC[C@]12CCC(=O)C=C1CCC1C2=CC[C@]2(C)C(=O)CCC12 (stereo partly drawn) | < 6.00 | 7 | 23 |
| CSCSCC[C@]12CCC(=O)C=C1CCC1C2=CC[C@]2(C)C(=O)CCC12 (stereo partly drawn) | 6.24 | – | – |
| C[C@]12CC=C3C(CCC4=CC(=O)CC[C@@]43CCSCCO)C1CCC2=O (stereo partly drawn) | < 6.00 | – | – |
| C#CCSCC[C@]12CCC(=O)C=C1CCC1C2=CC[C@]2(C)C(=O)CCC12 (stereo partly drawn) | 6.00 | 5 | 25 |
| C[C@]12CC=C3C(CCC4=CC(=O)CC[C@@]43CCOS(C)(=O)=O)C1CCC2=O (stereo partly drawn) | < 5.00 | – | – |
| CSCCCC12CCC(=O)C=C1CCC1C2=CC[C@]2(C)C(=O)CCC12 (single isomer, unassigned) | < 5.00 | – | – |

Reference: ChEMBL document CHEMBL1129479, “Structure-activity relationships of a new family of steroidal aromatase inhibitors. 1. Synthesis and evaluation of a series of analogs related to 19-[(methylthio)methyl]androstenedione (RU54115)” (J Med Chem, 1996)
